Read-outs that look alike come from different tables or passages of the source.
Columns and labels:
PDE5 = PDE5 (Cavia porcellus, UniProt H0VD23); assay: Inhibition of cyclic nucleotide PDE activity (Assay I), PDE5; format: biochemical, guinea pig
Experimental: Under a protocol approved by the Animal Care and Use Committee of Taipei Medical University, five male guinea pigs (Hartley), weighing 500-600 g, were sacrificed. The lungs (15 g) or hearts (4 g) taken therefrom were chopped into small pieces and homogenized with a glass/teflon homogenizer (Glas-Col, Terre Haute, Ind., USA) in 10 volumes of cold medium (pH 6.5) containing 20 mM Bis-Tris, 2 mM benzamidine, 2 mM EDTA, 50 mM sodium chloride, 0.1 mM phenylmethanesulfonyl fluoride (PMSF), and 1 mM dithiothreitol. At 4° C., the homogenate was centrifuged at 170 g for 15 min, and the supernatant thereof was then re-centrifuged at 40,000 g for 30 min. […] The column was washed with two bed volumes of homogenate buffer to remove unbound material, where the resin beads therein will bind with proteins, such as PDE proteins. […] And then the samples were frozen at −70° C.
In order to eliminate possible contamination of PDE5 by PDE1, the above-collected fractions with enzyme activity was further purified on a calmodulin-agarose column. The column (1.6 cm×4 cm) was pre-equilibrated by a buffer A, which contains 20 mM Bis-tris, 1 mM dithiothreitol, 2 mM benzamidine, 50 mM NaCl, 3 mMMgCl2, 0.1 mM CaCl2, and 0.1 mM PMSF, pH 6.5. The sample (the mixture of PDE5 and PDE1), being purified by the above-mentioned column, with the CaCl2 concentration thereof adjusted to at least 2 mM previously, was loaded and allowed to be absorbed on the gel for 30 min. Then, the PDE isozymes were eluted by stepwise elution using 20 ml of buffer A with 1 M NaCl followed by 20 ml of buffer A with 1 M NaCl and with 1 mM EGTA.
(§1) The activities of PDE1-5 in the homogenate were measured with a two-step procedure according to the method of Thompson and Appleman, using cAMP with [^3H]-cAMP or cGMP with [^3 H]-cGMP as substrates. The PDE enzyme prepared (25 μl) with 10 μl inhibitor or the solvents therefor was incubated for 30 min at 37° C. in a total assay buffer, where the final volume of the assay is amounted to 100 μl. In accordance with the features of the PDE isozymes, the assay buffer contains 50 mM Tris/HCl (pH 7.4), 3 mM MgCl2, 1 mM dithiothreitol, and 0.05% BSA, and optionally contains 1 uM cAMP with 0.2 μCi [^3H]-cAMP as a substrate alone or in the presence of 0.1 unit calmodulin with 10 μM CaCl2, or 5 μM cGMP, and 1 μM cGMP with 0.2 μCi [^3H]-cGMP as another substrate alone or in the presence of 0.1 unit calmodulin with 10 μM CaCl2.
(§2) The PDE enzyme and the inhibitors (or their solvent) therefor were mixed and incubated on ice for 30 min previously, and then mixed with the assay buffer. The assay was initiated by transferring the mixture to a water bath at 37° C. Following the other 30 min incubation, the reaction was stopped by transferring the reaction vessel to a bath of boiling water for 3 min. After cooling on ice, 20 μl of the 1 mg/ml of Crotalus atrox venom was added to the reaction mixture, and the mixture was incubated at 37° C. for 10 min. The uncatalyzed substrates, such as cAMP, [^3H]-cAMP, cGMP, or [^3H]-cGMP were removed by the addition of 500 μl of a 1-in-1 Tris-HCl (40 mM) buffer suspension of Dowex resin (1×8-200) with incubation on ice for 30 min, since the bindings of the cyclic nucleotides and the resin. Each tube was then centrifuged for 2 min at 6000 rpm, and 100 μl of the supernatant was removed and counted by a β-counter for calculating the enzyme (PDEs) activity.
(§3) The IC50 values of flavonoids and various reference drugs were calculated using non-linear regression analysis by the software SigmaPlot 7.0 (Sigma Chemical, St. Louis Mo., USA).

PDE4 = system: T1, PDE4; assay: Inhibition of cyclic nucleotide PDE activity (Assay I), PDE4, incl. Lineweaver-Burk analysis; format: biochemical, guinea pig; settings: for IC50: mean ± S.E.M. (n), read-out: IC50 on phosphodiesterase isozyme 4
T1 construct: IC50 on phosphodiesterase isozyme 4; other: mean ± S.E.M. (n)
Experimental: Under a protocol approved by the Animal Care and Use Committee of Taipei Medical University, five male guinea pigs (Hartley), weighing 500-600 g, were sacrificed. The lungs (15 g) or hearts (4 g) taken therefrom were chopped into small pieces and homogenized with a glass/teflon homogenizer (Glas-Col, Terre Haute, Ind., USA) in 10 volumes of cold medium (pH 6.5) containing 20 mM Bis-Tris, 2 mM benzamidine, 2 mM EDTA, 50 mM sodium chloride, 0.1 mM phenylmethanesulfonyl fluoride (PMSF), and 1 mM dithiothreitol. At 4° C., the homogenate was centrifuged at 170 g for 15 min, and the supernatant thereof was then re-centrifuged at 40,000 g for 30 min. […] The column was washed with two bed volumes of homogenate buffer to remove unbound material, where the resin beads therein will bind with proteins, such as PDE proteins. Proteins bound to the Q-sepharose beads were eluted with various concentrations (0.23, 0.34, 0.44, 0.69, and 1.00 M) of NaCl dissolved in homogenate buffer (for each concentration, 40-50 mL elution buffer were applied) at a flow rate of 30 ml/h. Fractions (3 ml each) were collected, and ethylene glycol (EG) was added thereto until a final concentration of 30% (v/v). And then the samples were frozen at −70° C.
as §1, §2
The dissociation constant of inhibitor binding (Ki) value was determined from the equation of apparent Km as a function of the inhibitor concentration (insert in A and B, respectively). The slope of the equation is equal to the value of […] (where KM is Michaelis constant). The amounts of the total proteins are calculated based on the analytical method reported by Bradford. In FIGS. 1A and 1B, all enzyme activities are shown as nmole of substrate per mg of proteins per minute (nmole/mg/min) hydrolyzed.
as §3

[1] = mean ± S.E.M. (n), read-out: IC50 on phosphodiesterase isozyme 5

O=c1c(O)c(-c2cc(O)c(O)c(O)c2)oc2cc(O)cc(O)c12 [Myricetin]
IC50 (PDE5; [1]): > 100 µM

O=c1c(O)c(-c2ccc(O)c(O)c2)oc2cc(O)cc(O)c12 [Quercetin]
IC50 (PDE5; [1]): > 100 µM

COc1ccc(C2CC(=O)c3c(O)cc(O)cc3O2)cc1O (stereo not shown) [Hesperetin]
IC50 (PDE5; [1]): > 100 µM
mode of inhibition of PDE4 enzyme activity (PDE4; Lineweaver-Burk plot, cAMP substrate, FIG. 1A): competitively inhibits

COc1ccc(-c2coc3cc(O)cc(O)c3c2=O)cc1 [Biochanin A]
IC50 (PDE5; [1]): > 100 µM

O=c1cc(-c2ccc(O)c(O)c2)oc2cc(O[C@@H]3O[C@H](CO)[C@@H](O)[C@H](O)[C@H]3O)cc(O)c12 [Luteolin-7-glucoside]
IC50 (PDE5; [1]): > 100 µM
IC50 (PDE4): 43 ± 5.3 µM

O=c1cc(-c2ccc(O)cc2)oc2cc(O)cc(O)c12 [Apigenin]
IC50 (PDE5; [1]): > 100 µM
IC50 (PDE4): > 100 µM

O=c1c(-c2ccc(O)cc2)coc2cc(O)ccc12 [Daidzein]
IC50 (PDE5; [1]): > 100 µM
IC50 (PDE4): > 100 µM

O=c1c(-c2ccc(O)cc2)coc2cc(O)cc(O)c12 [Genistein]
IC50 (PDE5): 73.9 ± 7.1 µM

O=c1cc(-c2ccc(O)c(O)c2)oc2cc(O)cc(O)c12 [Luteolin]
IC50 (PDE5; [1]): 19.3 ± 3.2 µM
IC50 (PDE4): 19.1 ± 2.4 µM

O=c1cc(-c2ccccc2)oc2cc(O)cc(O)c12 [Chrysin]
IC50 (PDE5; [1]): > 100 µM
IC50 (PDE4): > 100 µM

O=C1CC(c2ccc(O)c(O)c2)Oc2cc(O)cc(O)c21 (stereo not shown) [Eriodictyol]
IC50 (PDE5; [1]): > 100 µM
IC50 (PDE4): > 100 µM

COc1cc(O)c2c(=O)c(-c3ccc(O)cc3)coc2c1 [Prunetin]
IC50 (PDE5): > 100 µM
